Legend:
[1] = system: C. albicans CAI4; experiment: Spermidine uptake rate; format: cell-based, Candida albicans; conditions: method as in earlier work
Description: (§1) Next, we investigated the role of altered Hst 5 uptake mechanisms between C. albicans and C. glabrata as a probable reason for their differential susceptibilities to Hst 5. C. albicans contains six DUR transporter family members that are responsible for polyamine (spermidine, spermine, and putrescine) uptake. […] C. glabrata CAGL0K03157g product has 54% identity and 71% similarity with C. albicans DUR3 (orf19.781); and C. glabrata CAGL0108613g product has 51% identity and 69% similarity with C. albicans DUR31 (orf19.6656). However, C. glabrata CAGL0K03157g (CaDUR3 homologue) gene product has even higher homology with S. cerevisiae DUR3, having 65% identity and 76% similarity. The in silico predicted function of these C. glabrata proteins is transmembrane transport; however their specific functions remain uncharacterized. […] There were no significant differences in rates of spermidine uptake among the three strains of C. glabrata (0.163±0.015 nanomoles/10^6 cells/min) compared to C. albicans (0.160±0.014 nanomoles/10^6 cells/min); thus showing polyamine transporter activity is equivalent between C. albicans and C. glabrata strains in respect to spermidine.

[2] = system: C. glabrata Cg10, Cg30, Cg32; experiment: Spermidine uptake rate; format: cell-based, Candida glabrata; conditions: three strains of C. glabrata; method as in earlier work
Description: as §1

[3] = system: C. albicans CAI4 biofilm; experiment: Confocal microscopy of F-Hst 5 in 24 h biofilms; format: cell-based, Candida albicans; conditions: FITC-labeled Hst 5 31.5 µM, 24 h biofilm
Experimental: (§2) CAI4, Cg10, Cg30, Cg32, BG14, Cg BG14-CaDUR3, Cg BG14-CaDUR31, and Cg BG14-Empty vector were treated with fluorescein isothiocyanate FITC-labeled Hst 5 (F-Hst 5, synthesized by Genemed Synthesis, Inc.) to observe relative binding and uptake of salivary Hst 5 as described previously. […] Cells grown overnight (A600 = 0.8–1.0) were diluted to obtain 10^6 cells/ml in NaPB. Chambered cover glass slides (Lab-TekII) were coated with concanavalin A (100 µg/ml) for 30 min and washed twice with water. Cells (1×10^6) were fixed on concanavalin A-coated slides for 30 min at room temperature. The plates were then washed twice with 10 mM NaPB followed by addition of 31 µM FITC-Hst 5. Images were captured using a Zeiss LSM 510 Meta Confocal Microscope and Plan Apochromat 63/1.4 (oil) objective. The average fluorescence intensity was calculated using ImageJ software. Confocal images of cells were compared to determine the relative binding and uptake of Hst 5. Hst 5 binding to Candida biofilms was analyzed using confocal microscopy on biofilms of CAI4 and Cg30 strains. Biofilms were formed by addition of 500 µl cells (cultured overnight in YPD at 28°C, then washed and diluted to OD600 = 1.0 in PBS) to each well of culture dishes (MatTek, MA) and incubated at 37°C for 3 h. Non-adherent cells were removed by gentle washing and 500 µl media was added to each well. The dishes were then incubated at 37°C for 24 h to allow biofilm formation. F-Hst 5 (31.5 µM) was added to each well. Biofilms were measured using a series of horizontal (x–y) optical sections with a thickness of 0.38 µm taken throughout the full length of the biofilm. Z-stack images and thickness measurements of biofilms were obtained using AxioVision 4.4 software (Carl Zeiss LSM Micro Imaging). […] The total number of F-Hst 5 labeled cells was quantified in CAI4 and Cg30 biofilms manually from three independent stacks originating at the Bottom (2–3 µm), Middle (6–8 µm) or Top (12–16 µm) regions of the biofilm. Values were plotted using Graphpad Prism 5 software.

[4] = system: C. glabrata strains (ATCC 90030, 2001 and 64677); conditions: strains completely insensitive even at high concentrations; ref [10]; cited from earlier work
Description: Histatins are basic histidine-rich proteins secreted in human parotid and submandibular-sublingual saliva in humans and higher primates. Histatin 5 (Hst 5) is a proteolytic cleavage product of the larger Histatin 3 family member, [6]. […] However, ma ...

[5] = system: C. glabrata Cg30 biofilm; experiment: Confocal microscopy of F-Hst 5 in 24 h biofilms; format: cell-based, Candida glabrata; conditions: FITC-labeled Hst 5 31.5 µM, 24 h biofilm
Experimental: as §2, with “Confocal images of cells were compared to determine the relative binding and uptake of Hst 5.” left out, “Biofilms were formed by addition of 500 µl cells (cultured overnight in YPD at 28°C, then washed and diluted to OD600 = 1.0 in PBS) to each well of culture dishes (MatTek, MA) and incubated at 37°C for 3 h. Non-adherent cells were removed by gentle washing and 500 µl media was added to each well. The dishes were then incubated at 37°C for 24 h to allow biofilm formation. F-Hst 5 (31.5 µM) was added to each well.” left out, “biofilm.” for “biofilm. Z-stack images and thickness measurements of biofilms were obtained using AxioVision 4.4 software (Carl Zeiss LSM Micro Imaging).”, “Values were plotted using Graphpad Prism 5 software.” left out

[6] = system: C. glabrata Cg 90032 (Cg32); experiment: Candidacidal assay (microdilution plate); format: cell-based, Candida glabrata; conditions: Hst 5 up to 31 µM; 10 mM NaPB pH 7.2, 30°C, 30 min, colony counts; n = 4
Experimental: (§3) Candidacidal assays were performed using microdilution plate assays. Briefly, single colonies of C. albicans CAI4, C. glabrata Cg10, Cg30, Cg32, and BG14 strains were inoculated in YPD media; Cg BG14-CaDUR3, Cg BG14-CaDUR31, and Cg BG14-Empty vector were inoculated in YNB media without uridine and grown overnight (A600 = 1.6–1.8). Cells were washed twice with 10 mM sodium phosphate buffer (NaPB) (pH 7.2) and cells (1×10^6) were incubated at 30°C for 30 min with different concentrations of Hst 5. Aliquots of 500 cells were spread onto YPD (WT strains) or YNB - uridine (C. glabrata expressing C. albicans DUR genes) agar plates and incubated for 48 h to visualize surviving colonies. Blocking experiments were performed using cells pre-incubated with β-1,3-glucan monoclonal antibody (Biosupplies) at room temperature for 30 min. All killing assays were performed in triplicate and repeated at least thrice. Percent cell killing was calculated as 1−(number of colonies from suspensions with Hst 5/numbers of colonies from control suspensions)×100.

[7] = system: C. glabrata Cg 90030 (Cg30); experiment: Candidacidal assay (microdilution plate); format: cell-based, Candida glabrata; conditions: Hst 5 up to 31 µM; 10 mM NaPB pH 7.2, 30°C, 30 min, colony counts; n = 4
Experimental: as §3

[8] = system: Cg BG14-CaDUR3; experiment: Candidacidal assay (microdilution plate); format: cell-based, Candida glabrata; conditions: Hst 5 60 µM; 10 mM NaPB pH 7.2, 30°C, 30 min, colony counts; n = 3
Experimental: as §3

[9] = system: C. glabrata Cg 931010 (Cg10); experiment: Candidacidal assay (microdilution plate); format: cell-based, Candida glabrata; conditions: 31 µM Hst 5; 1×10^6 cells, 10 mM NaPB pH 7.2, 30°C, 30 min, colony counts; n = 4
Experimental: as §3

[10] = system: C. glabrata BG14 cells not expressing C. albicans DUR genes; experiment: Candidacidal assay (microdilution plate); format: cell-based, Candida glabrata; conditions: Hst 5 60 µM; 10 mM NaPB pH 7.2, 30°C, 30 min, colony counts; n = 3
Experimental: as §3

[11] = system: Cg BG14-CaDUR31; experiment: Candidacidal assay (microdilution plate); format: cell-based, Candida glabrata; conditions: Hst 5 60 µM; 10 mM NaPB pH 7.2, 30°C, 30 min, colony counts; n = 3
Experimental: as §3

[12] = system: C. albicans CAI4; experiment: Candidacidal assay (microdilution plate); format: cell-based, Candida albicans; conditions: 31 µM Hst 5; 1×10^6 cells, 10 mM NaPB pH 7.2, 30°C, 30 min, colony counts after 48 h; n = 4
Experimental: as §3

Row | Compound | rate of spermidine uptake [1] | rate of spermidine uptake [2] | Hst 5 containing cells, total biofilm [3] | percentage of Hst 5 containing cells, bottom regions [3] | percentage of Hst 5 positive cells, middle regions (8 µm) [3] | IC50 [4] | Hst 5 containing cells, total biofilm [5] | percentage of Hst 5-labeled cells, bottom regions (2.5 µm) [5] | maximal killing [6] | maximal killing [7] | killing [8] | killing [9] | killing [10] | killing [11] | cell death (killing) [12]
1 | NCCCCNCCCN [spermidine] | 0.160±0.014 nanomoles/10^6 cells/min | 0.163±0.015 nanomoles/10^6 cells/min |  |  |  |  |  |  |  |  |  |  |  |  | 
2 | Histatin 5 [Hst 5] |  |  | 28% | ≈ 25% | 33% | > 225 mg/L | 17% | 20% | 10% | 8% | 43% | 22% | 25% | 55% | 65%
